{"source": "the NIST ThermoML archive (doi:10.1016/j.jct.2017.08.017)", "key": {"[1]": {"assay": "molar enthalpy of vaporization or sublimation", "conditions": "298.15 K; Crystal; Static calorimetry"}, "[2]": {"conditions": "Crystal, Calculated from knudsen effusion weight loss"}}, "note": "Where “and” joins values, the source holds several entries; their conditions need not be identical. Identical values can stand only once. Numbers after ± are expanded uncertainties."}
{"smiles": "Oc1ccccc1-c1nc2ccccc2s1", "note": "[2-(2-hydroxyphenyl)-1,3-benzothiazole]", "values": [{"measurement": "molar enthalpy", "setting": "[1]", "result": "25.1 ± 0.526", "unit": "kcal/mol"}]}
{"smiles": "Oc1ccccc1-c1nc2ccccc2o1", "note": "[2-(2-hydroxyphenyl)benzoxazole]", "values": [{"measurement": "vapor or sublimation pressure", "setting": "[2]; 331.16 K", "result": "0.000127 ± 0.00012 kPa and 0.00012 ± 0.00012 kPa and 0.000119 ± 0.00012 kPa"}, {"measurement": "vapor or sublimation pressure", "setting": "[2]; 333.19 K", "result": "0.000156 ± 0.00012 kPa and 0.000152 ± 0.00012 kPa and 0.00015 ± 0.00012 kPa"}, {"measurement": "vapor or sublimation pressure", "setting": "[2]; 335.13 K", "result": "0.000191 ± 0.00012 kPa and 0.000188 ± 0.00012 kPa"}, {"measurement": "vapor or sublimation pressure", "setting": "[2]; 337.16 K", "result": "0.000233 ± 0.00012 kPa and 0.00023 ± 0.00012 kPa and 0.000248 ± 0.00012 kPa"}, {"measurement": "vapor or sublimation pressure", "setting": "[2]; 339.18 K", "result": "0.000301 ± 0.00012 kPa and 0.000288 ± 0.00012 kPa and 0.000294 ± 0.00012 kPa"}, {"measurement": "vapor or sublimation pressure", "setting": "[2]; 341.12 K", "result": "0.000365 ± 0.00012 kPa and 0.000362 ± 0.00012 kPa and 0.000366 ± 0.00012 kPa"}, {"measurement": "vapor or sublimation pressure", "setting": "[2]; 343.16 K", "result": "0.000446 ± 0.00012 kPa and 0.000441 ± 0.00012 kPa and 0.000477 ± 0.00012 kPa"}, {"measurement": "vapor or sublimation pressure", "setting": "[2]; 345.17 K", "result": "0.000571 ± 0.00012 kPa and 0.000545 ± 0.00012 kPa and 0.000558 ± 0.00012 kPa"}, {"measurement": "vapor or sublimation pressure", "setting": "[2]; 347.11 K", "result": "0.000688 ± 0.00012 kPa and 0.00068 ± 0.00012 kPa"}, {"measurement": "vapor or sublimation pressure", "setting": "[2]; 349.16 K", "result": "0.000829 ± 0.00012 kPa and 0.000822 ± 0.00012 kPa and 0.000879 ± 0.00012 kPa"}, {"measurement": "vapor or sublimation pressure", "setting": "[2]; 351.16 K", "result": "0.001027 ± 0.00014 kPa and 0.001049 ± 0.00014 kPa and 0.001006 ± 0.00014 kPa"}, {"measurement": "vapor or sublimation pressure", "setting": "[2]; 353.12 K", "result": "0.001264 ± 0.00015 kPa and 0.001273 ± 0.00015 kPa and 0.00126 ± 0.00015 kPa"}, {"measurement": "molar enthalpy", "setting": "[1]", "result": "24 ± 0.43", "unit": "kcal/mol"}]}
{"smiles": "c1ccc(-c2nc3ccccc3s2)cc1", "note": "[2-phenylbenzothiazole]", "values": [{"measurement": "molar enthalpy", "setting": "[1]", "result": "23.7 ± 0.406", "unit": "kcal/mol"}]}
{"smiles": "c1ccc(-c2nc3ccccc3o2)cc1", "note": "[2-phenylbenzoxazole]", "values": [{"measurement": "molar enthalpy", "setting": "[1]", "result": "21.7 ± 0.478", "unit": "kcal/mol"}]}
